Reference: patent US11484608B2, “Non-invasive assessment of hepatic mitochondrial metabolism by positional isotopomer NMR tracer analysis (PINTA)” (YALE UNIVERSITY, priority 2017, dated 2022)
Blank lines part the entries; values can stand above or below the compound they belong to.

What was measured:
CPT-1 = target: T1, CPT-1 (Rattus norvegicus, UniProt P32198); assay: CPT-1 inhibitor etomoxir in 0, 6, 16 and 48 hr fasted rats; type: in vivo
T1 construct: from tissue; host or cells: live rat, in vivo (intraperitoneal dosing); liver is the tissue discussed
T1 sequence (P32198 1-773): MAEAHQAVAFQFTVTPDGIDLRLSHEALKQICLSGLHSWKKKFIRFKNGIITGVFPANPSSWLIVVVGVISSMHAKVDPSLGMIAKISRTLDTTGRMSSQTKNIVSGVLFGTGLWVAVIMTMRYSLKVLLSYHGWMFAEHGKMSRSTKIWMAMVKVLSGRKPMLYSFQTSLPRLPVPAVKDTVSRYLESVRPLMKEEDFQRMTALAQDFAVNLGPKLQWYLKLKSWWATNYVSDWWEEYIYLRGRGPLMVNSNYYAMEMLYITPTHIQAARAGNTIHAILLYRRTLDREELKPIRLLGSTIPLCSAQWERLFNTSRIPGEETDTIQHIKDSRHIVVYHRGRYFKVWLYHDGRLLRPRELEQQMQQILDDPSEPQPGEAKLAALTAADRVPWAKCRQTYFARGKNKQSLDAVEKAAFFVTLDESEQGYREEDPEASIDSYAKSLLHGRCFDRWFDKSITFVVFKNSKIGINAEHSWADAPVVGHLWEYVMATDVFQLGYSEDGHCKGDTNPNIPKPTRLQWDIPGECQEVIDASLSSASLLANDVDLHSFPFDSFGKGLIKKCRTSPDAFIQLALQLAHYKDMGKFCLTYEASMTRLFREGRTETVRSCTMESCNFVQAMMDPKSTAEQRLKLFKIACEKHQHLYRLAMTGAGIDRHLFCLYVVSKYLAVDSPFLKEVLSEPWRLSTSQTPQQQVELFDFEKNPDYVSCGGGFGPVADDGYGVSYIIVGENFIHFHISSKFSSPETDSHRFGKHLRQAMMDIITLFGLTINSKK
Method: (§1) 8, 16, and 48 hr fasted rats were injected with a small molecule inhibitor of glycogen phosphorylase, 1-(3-(3-(2-Chloro-4,5-difluorobenzoyl) ureido)-4-methoxyphenyl)-3-methylurea (Sigma #361515; 5 mg/kg IV) and a tracer infusion of [2,3,3,3-^2H4]alanine ([…]prime for 5 min and […] continuous) and [3-^3H]glucose (0.3 μCi/min prime for 5 min and 0.3 μCi/min continuous) as well as [^13C4] β-hydroxybutyrate, [1,1,2,3,3-^2H5]glycerol, and [^13C16]palmitate at the rates listed in Table 9, for 120 min. Blood samples were obtained before (time zero) and 120 min after treatment with the glycogen phosphorylase inhibitor for measurement of turnover rates and plasma hormone/substrate concentrations. Hepatic acetyl-CoA content was altered by treatment with a CPT-1 inhibitor (etomoxir, 8 mg/kg) or an ATGL inhibitor (atglistatin, […]) in 0, 6, 16, and 48 hr fasted rats. Both agents were solubilized by suspending the drug in 4% ethanol/96% normal saline, heating to 60° C., and sonicating, and were cooled to room temperature before they were injected intraperitoneally. […] In these animals plasma glucose concentrations were measured every 15 minutes and a variable infusion of 20% glucose (Pfizer Hospira, Lake Forest, Ill.) was used to maintain plasma glucose concentrations ˜3.6-3.7 mM. The physiologic role of glucocorticoids was assessed in 6 and 48 hr fasted rats by treatment with a glucocorticoid receptor antagonist, mifepristone. Following a 2 hr tracer infusion at the rates described above to assess fatty acid, glycerol, glucose, and β-hydroxybutyrate turnover, rats were injected with mifepristone (40 mg/kg) IV. The tracer infusion was continued and the tracer of each of the above substrates was again measured 2 hr after treatment with mifepristone.
(§2) All whole-body substrate turnover rates were calculated using the equation Turnover=([Tracer APE/Plasma APE]−1)*Infusion rate, where APE designates the atom percent enrichment measured by mass spectrometry as described below (Biochemical Analysis). All chemicals used for flux analysis were obtained from SIGMA. Turnover of glucose, glycerol, and β-hydroxybutyrate were determined by gas chromatography-mass spectrometry (GC-MS). Briefly, both glucose and glycerol were deprotonized with 5 volumes of methanol, derivitized with 3 volumes of 1:1 acetic anhydride:pyridine, heated to 65° C. for 20 min, and 1 volume of methanol was added, then GC-MS was used in CI mode to measure glucose enrichment and EI mode to measure glycerol enrichment, with turnover calculated using the equation above. β-Hydroxybutyrate was deprotonized with 5 volumes of methanol and derivitized with 3 volumes of n-butanol 4N HCl, after which the samples were heated to 65° C. for 60 min, evaporated under N2 gas, and re-suspended in […] of trifluoroacetic acid:methylene chloride (1:7). Fatty acid turnover was measured by determining the plasma palmitate enrichment by GC-MS. Samples were prepared for measurements of palmitate enrichment by evaporating […] plasma, dissolving in […] 1:1 chloroform:methanol and derivitizing with […] boron trifluoride/methanol, then heating to 100° C. for 5 min, adding 2 mL pentane and 1 mL water, and centrifuging at low speed for 5 min. […] Alanine turnover was determined in rats infused with [2,3,3,3-^2H4]alanine by preparing samples to measure alanine enrichment by GC/MS (CI mode) using the same protocol as was employed to measure β-hydroxybutyrate enrichment.

[1] = test system: primary mouse hepatocytes; assay: In vitro glucose production, VPC and lipolysis in isolated hepatocytes; type: cell-based; conditions: for glucagon-stimulated VPC flux / glucagon-stimulated glucose production: WT hepatocytes, 100 nM glucagon, 8 hr; for effect of glucagon to stimulate intrahepatic lipolysis: isolated hepatocytes
Method: For in vitro glucose production and lipolysis studies, primary mouse hepatocytes were isolated by the Yale Liver Center. Following removal of cell debris by Percoll density gradient centrifugation, cells were plated on 6-well collagen-I coated dishes (4.0×10^5 cells/well) in 2 ml recovery media (DMEM High Glucose containing 10% FBS, 2% penicillin-streptomycin, 100 nM dexamethasone, 1 nM insulin, and 10 mM HEPES). After incubation for 6 hr at 37° C. and 5% CO2, the attached cells were washed once in 1×PBS and then incubated overnight in 2 ml Low Glucose Culture Media (DMEM Low Glucose supplemented with 10% FBS, 2% penicillin-streptomycin and 10 mM HEPES for glucose production studies) or Serum Free Low Glucose Culture Media (DMEM Low Glucose supplemented with 0.5% fatty acid free BSA, 2% penicillin-streptomycin and 10 mM HEPES for lipolysis assays). […] After incubation for 8 hr at 37° C. and 5% CO2, cell culture media was collected for analysis of glucose, NEFA, and glycerol concentrations as described above. VPC was determined by measuring VPC/VEGP by PINTA as described above using 300 μL of the collected media, and multiplying this ratio by the measured glucose production rate. In a subset of studies, cells were incubated for 8 hr during the glucose production assay in media containing one of the following agents (all dissolved in 0.5% DMSO), or 0.5% DMSO vehicle: 20 μM ET-18-OCH3 (Santa Cruz), 100 μM U-73122 (Sigma), 30 nM thapsigargin (Sigma), 100 nM vasopressin (Sigma) 50 μM 2-APB (R&D Systems), 70 μM caffeine (Sigma), 1 mM malic enzyme inhibitor hydroxymalonate (Sigma). To inhibit PKA, hepatocytes were incubated in H-89 […] hydrate (Sigma, 25 μM) dissolved in media, or media lacking H-89 as a control. In the insulin treatment studies, hepatocytes were incubated in 1 nM insulin with 5% BSA and glucose production media for the duration of the glucose production assay. In the in vitro atglistatin study, hepatocytes were incubated in 10 μM atglistatin in 0.1% EtOH, or 0.1% EtOH vehicle. All values were normalized to total protein content determined from whole-cell lysates by a BCA protein assay (Thermo Fisher Scientific) according to the manufacturer's instructions and expressed as fold change verses vehicle-treated cells.

glycogen phosphorylase = target: T2, glycogen phosphorylase (Rattus norvegicus, UniProt P09811); assay: Glycogen phosphorylase inhibitor in 8, 16 and 48 hr fasted rats; type: in vivo; conditions: for reduction in rates of endogenous glucose production: 5 mg/kg IV, 2 hr
T2 construct: from tissue; host or cells: live rat, in vivo (IV dosing); liver is the tissue discussed
T2 sequence (P09811 1-850): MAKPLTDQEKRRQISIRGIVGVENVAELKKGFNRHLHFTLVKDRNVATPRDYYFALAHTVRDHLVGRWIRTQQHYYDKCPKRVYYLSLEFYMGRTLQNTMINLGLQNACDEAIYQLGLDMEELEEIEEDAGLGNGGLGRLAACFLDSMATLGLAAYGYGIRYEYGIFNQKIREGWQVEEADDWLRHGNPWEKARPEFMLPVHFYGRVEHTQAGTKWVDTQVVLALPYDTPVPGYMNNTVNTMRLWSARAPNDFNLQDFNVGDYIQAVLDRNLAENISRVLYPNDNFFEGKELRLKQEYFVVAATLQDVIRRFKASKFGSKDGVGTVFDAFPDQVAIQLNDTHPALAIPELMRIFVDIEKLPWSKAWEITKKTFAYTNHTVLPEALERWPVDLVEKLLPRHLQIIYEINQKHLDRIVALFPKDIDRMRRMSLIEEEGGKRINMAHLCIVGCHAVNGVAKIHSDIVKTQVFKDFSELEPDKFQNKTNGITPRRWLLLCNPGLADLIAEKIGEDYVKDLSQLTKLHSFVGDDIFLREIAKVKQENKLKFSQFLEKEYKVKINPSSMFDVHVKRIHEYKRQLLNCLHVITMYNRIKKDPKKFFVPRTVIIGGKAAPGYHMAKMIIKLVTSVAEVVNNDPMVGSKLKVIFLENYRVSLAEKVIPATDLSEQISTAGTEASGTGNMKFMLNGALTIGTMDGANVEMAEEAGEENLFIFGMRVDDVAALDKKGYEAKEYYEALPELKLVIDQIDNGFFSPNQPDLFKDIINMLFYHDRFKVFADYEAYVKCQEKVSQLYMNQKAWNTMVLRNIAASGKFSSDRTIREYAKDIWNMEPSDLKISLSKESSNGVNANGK
Method: as §1, §2

[2] = short-term fasted rats (8 and 16 hr)

- plasma corticosterone concentrations (CPT-1; 16- and 48-hr fasted rats): increases
- reductions in plasma leptin concentrations (CPT-1; 16- and 48-hr fasted rats): 50%
- hepatic acetyl-CoA content, hepatic gluconeogenesis, and plasma glucose and insulin concentrations (CPT-1; 16- to 48-hr fasted rats): suppressed
- WAT lipolysis (CPT-1; fasted rats): increased
- hepatic acetyl-CoA content (CPT-1; fasted rats): suppression
- plasma epinephrine or norepinephrine concentrations (CPT-1; fasted rats): no differences
- plasma lactate and hepatic malonyl-CoA concentrations (CPT-1; fasted rats): unchanged
- β-hydroxybutyrate turnover (CPT-1; fasted rats): suppression
- plasma glucose concentrations (CPT-1; fasted rats, 8 mg/kg IP, 2 hr): lowered
- plasma insulin concentrations (CPT-1; fasted rats, 8 mg/kg IP, 2 hr): lowered
- whole body glucose turnover (CPT-1; fasted rats, 8 mg/kg IP, 2 hr): lowered
Compound: CCOC(=O)[C@@]1(CCCCCCOc2ccc(Cl)cc2)CO1 [etomoxir]

Compound: insulin
- glucose production and VPC flux ([1]; isolated hepatocytes with insulin, unaltered in InsP3R-I KO): suppress

Compound: C/C=C(/C)C(=O)O[C@H]1C(C)=C2[C@H]([C@@H]1OC(=O)CCCCCCC)[C@@](C)(OC(C)=O)C[C@H](OC(=O)CCC)[C@@]1(O)[C@H]2OC(=O)[C@@]1(C)O [thapsigargin]
- glucagon-stimulated VPC flux [1]: inhibited
- glucagon-stimulated glucose production [1]: inhibited
- effect of glucagon to stimulate intrahepatic lipolysis [1]: abrogated

- plasma ACTH concentrations (glycogen phosphorylase; 8- and 16-hr fasted rats): increases
- plasma corticosterone concentrations (glycogen phosphorylase; 8- and 16-hr fasted rats): increases
- plasma leptin concentrations (glycogen phosphorylase; 8- and 16-hr fasted rats): reductions
- reduction in rates of endogenous glucose production (glycogen phosphorylase; 8-hr fasted rats): 60%
- plasma FGF-21 concentrations (glycogen phosphorylase; 8 and 16-hr fasted rats): increased
- plasma glucose concentrations (glycogen phosphorylase; 8 and 16 hr fasted rats): lowered
- plasma insulin concentrations (glycogen phosphorylase; 8 and 16 hr fasted rats): lowered
- plasma lactate concentrations (glycogen phosphorylase; 8 and 16 hr fasted rats): lowered
- whole-body glucose turnover (glycogen phosphorylase; 8 and 16 hr fasted rats): lowered
- reduction in rates of endogenous glucose production (glycogen phosphorylase; 16-hr fasted rats): 30%
- plasma glucose, lactate, and insulin concentrations and whole-body glucose turnover (glycogen phosphorylase; 48-hr fasted rats): not in the 48-hr fasted rats
- rates of endogenous glucose production (glycogen phosphorylase; 48-hr fasted rats): no difference
- plasma glucagon and catecholamine concentrations (glycogen phosphorylase; fasted rats): not altered
- rates of WAT lipolysis (glycogen phosphorylase; [2]): increased
- rates of alanine turnover (glycogen phosphorylase; [2]): decreased
Compound: CNC(=O)Nc1ccc(OC)c(NC(=O)NC(=O)c2cc(F)c(F)cc2Cl)c1 [glycogen phosphorylase inhibitor, 1-(3-(3-(2-Chloro-4,5-difluorobenzoyl)ureido)-4-methoxyphenyl)-3-methylurea]

Compound: COc1ccc(S(=O)(=O)N(CCO)c2ccccc2CN(C)C/C=C/c2ccc(Cl)cc2)cc1 [KN-93]
- glucagon-stimulated glucose production [1]: abrogated
- effect of glucagon to stimulate intrahepatic lipolysis [1]: abrogated

Compound: Cn1c(=O)c2c(ncn2C)n(C)c1=O [caffeine]
- glucagon-stimulated VPC flux [1]: inhibited
- glucagon-stimulated glucose production [1]: inhibited
- effect of glucagon to stimulate intrahepatic lipolysis [1]: abrogated

Compound: COc1ccc2c(c1)CC[C@@H]1[C@@H]2CC[C@]2(C)[C@@H](NCCCCCCN3C(=O)C=CC3=O)CC[C@@H]12 [U-73122]
- glucagon-stimulated VPC flux [1]: inhibited
- glucagon-stimulated glucose production [1]: inhibited
- effect of glucagon to stimulate intrahepatic lipolysis [1]: abrogated

Compound: NCCOB(c1ccccc1)c1ccccc1 [2-APB, 2-aminoethoxydiphenyl borate]
- glucagon-stimulated VPC flux [1]: inhibited
- glucagon-stimulated glucose production [1]: inhibited
- effect of glucagon to stimulate intrahepatic lipolysis [1]: abrogated

Compound: CCCCCCCCCCCCCCCCCCOCC(COP(=O)([O-])OCC[N+](C)(C)C)OC (centres unmarked) [ET-18-OCH3]
- glucagon-stimulated VPC flux [1]: inhibited
- glucagon-stimulated glucose production [1]: inhibited
- effect of glucagon to stimulate intrahepatic lipolysis [1]: abrogated
